In patent US20200397796A1, “METHODS OF TREATMENT OF CANCER COMPRISING CHK1 INHIBITORS” (SIERRA ONCOLOGY, INC., priority 2018, published 2020):

What was measured:
KPC-1 pancreatic cancer = assay: In vivo efficacy, KPC-1 model; design: species or system mouse; details: in combination with standard-dose gemcitabine; data not shown
Experimental: A program of in vivo efficacy studies was performed to assess the activity of SRA737 in combination with genotoxic chemotherapy and targeted agents, and as monotherapy.
One of these models also carried a MYCN amplification. A fourth HGSOC PDX model with partial resistance to PARPi was also sensitive to high dose SRA737 monotherapy.

[1] = Phase 1 clinical trial, SRA737 monotherapy dose escalation; type: in vivo, human; details: for AUC(0-t): AUC0-24
Experimental: A Phase 1 clinical trial was conducted in ‘all comers,’ i.e. no genetic selection was performed, to establish safety, tolerability and pharmacokinetics (“Dose Escalation Phase”). Cohorts consisting initially of a single subject received escalating doses of SRA737, starting in Cohort 1 with 20 mg/day administered orally on a continuous daily dosing schedule in 28 day cycles. the dose was escalated until the maximum tolerated dose (MTD) was identified.
In the Dose Escalation Phase, 18 subjects received SRA737 in 9 dose level cohorts, from 20 to 1300 mg QD; median treatment duration 62.5 days (range 1 to 226). […] Two of 3 subjects experienced DLTs at the 1300 mg once daily dose, each being an inability to receive 75% of the planned SRA737 dose due to GI intolerability, with the individual GI effects being low grade. […] A cohort receiving 500 mg twice daily was added to determine if a twice daily dosing schedule can improve GI tolerability, given the half-life of SRA737 is approximately 10 hours. One of 6 subjects experienced DLTs in the 500 mg twice daily cohort; this was an inability to receive 75% of the planned SRA737 dose due to grade 4 thrombocytopenia with grade 3 neutropenia and anemia.
Cmin was calculated at 1000 mg QD (411 ng/mL) and exceeded that determined in preclinical models to be effective. Doses≥300 mg QD also exceeded the preclinical models to be effective.

N#Cc1cnc(Nc2cc(NCC3CNCCO3)c(C(F)(F)F)cn2)cn1 (centres unmarked) [SRA737, 5-[[4-[[morpholin-2-yl]methylamino]-5-(trifluoromethyl)-2-pyridyl]amino]pyrazine-2-carbonitrile]
antitumor activity (KPC-1 pancreatic cancer): Significant, dose-dependent antitumor activity
maximum tolerated dose (MTD) ([1]; BID): 500 mg
maximum tolerated dose (MTD) ([1]; QD, continuous daily oral dosing): 1000 mg
dose-limiting toxicities (DLTs) ([1]; human, in vivo): without any dose-limiting toxicities
doses that exceeded the level determined in preclinical models to be effective ([1]; human, in vivo): ≥ 300 mg
Cmax ([1]; human, in vivo, 20 mg): 29.0 ng/mL
Cmax ([1]; human, in vivo, 20 mg, Cmax): 43 ng/mL
half-life ([1]; human, in vivo, 20 mg, T1/2): 17.6 h
AUC0-24 ([1]; human, in vivo, 40 mg): 1,006 ng · h/mL
Cmax ([1]; human, in vivo, 40 mg): 75.9 ng/mL
T1/2 ([1]; human, in vivo, 40 mg): 16.8 h
Tmax ([1]; human, in vivo, 40 mg): 2.0 h
AUC(0-t) ([1]; human, in vivo, 40 mg): 809 ng·h/mL
Cmax ([1]; human, in vivo, 40 mg, Cmax): 95 ng/mL
half-life ([1]; human, in vivo, 40 mg, T1/2): 9.85 h
Tmax ([1]; human, in vivo, 40 mg, Tmax): 1 h
AUC0-24 ([1]; human, in vivo, 80 mg): 1,064 ng · h/mL
Cmax ([1]; human, in vivo, 80 mg): 81.4 ng/mL
T1/2 ([1]; human, in vivo, 80 mg): 15.6 h
Tmax ([1]; human, in vivo, 80 mg): 2.0 h
AUC(0-t) ([1]; human, in vivo, 80 mg): 691 ng·h/mL
Cmax ([1]; human, in vivo, 80 mg, Cmax): 68.9 ng/mL
half-life ([1]; human, in vivo, 80 mg, T1/2): 9.27 h
Tmax ([1]; human, in vivo, 80 mg, Tmax): 4 h
AUC0-24 ([1]; human, in vivo, 160 mg): 2,515 ng · h/mL
Cmax ([1]; human, in vivo, 160 mg): 217 ng/mL
T1/2 ([1]; human, in vivo, 160 mg): 19.8 h
Tmax ([1]; human, in vivo, 160 mg): 2.0 h
AUC(0-t) ([1]; human, in vivo, 160 mg): 1620 ng·h/mL
Cmax ([1]; human, in vivo, 160 mg, Cmax): 178 ng/mL
half-life ([1]; human, in vivo, 160 mg, T1/2): 13.8 h
Tmax ([1]; human, in vivo, 160 mg, Tmax): 4 h
AUC0-24 ([1]; human, in vivo, 300 mg): 2,362 ng · h/mL
T1/2 ([1]; human, in vivo, 300 mg): 15.4 h
Tmax ([1]; human, in vivo, 300 mg): 6.0 h
AUC(0-t) ([1]; human, in vivo, 300 mg): 3150 ng·h/mL
half-life ([1]; human, in vivo, 300 mg, T1/2): 8.59 h
Tmax ([1]; human, in vivo, 300 mg, Tmax): 4 h
AUC0-24 ([1]; human, in vivo, 600 mg): 12,850 ng · h/mL
Cmax ([1]; human, in vivo, 600 mg): 1,381 ng/mL
T1/2 ([1]; human, in vivo, 600 mg): 10.4 h
Tmax ([1]; human, in vivo, 600 mg): 2.9 h
AUC(0-t) ([1]; human, in vivo, 600 mg): 8870 ng·h/mL
Cmax ([1]; human, in vivo, 600 mg, Cmax): 998 ng/mL
half-life ([1]; human, in vivo, 600 mg, T1/2): 12.9 h
Tmax ([1]; human, in vivo, 600 mg, Tmax): 1.8 h
AUC0-24 ([1]; human, in vivo, 800 mg): 25,423 ng · h/mL
Cmax ([1]; human, in vivo, 800 mg): 2,573 ng/mL
T1/2 ([1]; human, in vivo, 800 mg): 10.0 h
Tmax ([1]; human, in vivo, 800 mg): 2.5 h
AUC(0-t) ([1]; human, in vivo, 800 mg): 18900 ng·h/mL
Cmax ([1]; human, in vivo, 800 mg, Cmax): 1980 ng/mL
half-life ([1]; human, in vivo, 800 mg, T1/2): 10.3 h
Tmax ([1]; human, in vivo, 800 mg, Tmax): 3.3 h
T1/2 ([1]; human, in vivo, 1000 mg): 9.38 h
Tmax ([1]; human, in vivo, 1000 mg): 3.1 h
AUC(0-t) ([1]; human, in vivo, 1000 mg): 26800 ng·h/mL
Cmax ([1]; human, in vivo, 1000 mg, Cmax): 2390 ng/mL
half-life ([1]; human, in vivo, 1000 mg, T1/2): 11 h
Tmax ([1]; human, in vivo, 1000 mg, Tmax): 3.3 h
AUC(0-t) ([1]; human, in vivo, 1300 mg): 29800 ng·h/mL
Cmax ([1]; human, in vivo, 1300 mg, Cmax): 3230 ng/mL
half-life ([1]; human, in vivo, 1300 mg, T1/2): 11.8 h
Tmax ([1]; human, in vivo, 1300 mg, Tmax): 2.7 h
half-life ([1]; human, in vivo, half-life): ~10 h
